Measurements reported in patent publication US20240325370A1, “THERAPEUTIC REGIMENS OF A DEGRADER OF BRD9” (FOGHORN THERAPEUTICS INC., priority 2021, published 2024).
Entries after “also recorded” stand apart in the source; their conditions may differ.

Tests used:
BRD9 [1] = biological target: T1, BRD9 (Homo sapiens, UniProt Q9H8M2); test: Tumor BRD9 modulation after each regimen, SYO-1 xenograft (western blot); type: in vivo, mice; parameters: from tissue; host or cells: SYO-1 xenograft tumours in BALB/c nude or NOD SCID mice
T1 sequence (Q9H8M2 1-597): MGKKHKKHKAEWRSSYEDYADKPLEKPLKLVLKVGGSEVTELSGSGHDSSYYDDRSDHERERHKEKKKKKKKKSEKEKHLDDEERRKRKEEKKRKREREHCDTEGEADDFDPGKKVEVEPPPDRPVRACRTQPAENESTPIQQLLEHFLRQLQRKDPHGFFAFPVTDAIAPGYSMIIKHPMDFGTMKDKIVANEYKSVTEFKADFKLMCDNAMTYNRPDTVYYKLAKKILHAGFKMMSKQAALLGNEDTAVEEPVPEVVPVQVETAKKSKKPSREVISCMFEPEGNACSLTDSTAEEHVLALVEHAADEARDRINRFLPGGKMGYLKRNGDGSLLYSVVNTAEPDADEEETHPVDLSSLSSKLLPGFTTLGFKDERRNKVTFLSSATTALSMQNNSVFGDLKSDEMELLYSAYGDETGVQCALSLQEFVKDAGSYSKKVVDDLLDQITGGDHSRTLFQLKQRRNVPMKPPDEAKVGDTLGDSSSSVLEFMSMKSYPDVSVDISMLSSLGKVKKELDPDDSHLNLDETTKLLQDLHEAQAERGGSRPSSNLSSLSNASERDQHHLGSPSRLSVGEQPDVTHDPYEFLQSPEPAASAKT
Description: The racemate, compound D1, which consists of ˜50% compound S-D1, was utilized in an SYO-1 (a synovial sarcoma xenograft) model to explore if similar efficacy is achievable with an intermittent dosing schedule. Due to technical feasibility and animal-welfare considerations, intraperitoneal (IP) administration was chosen over the IV route. […] Groups of female SYO-1 tumor-bearing NOD SCID mice (n=8/group) were intraperitoneally administered with vehicle or compound D1 for 21 days. Compound D1 was formulated as a suspension in 10% DMSO/40% PEG400/50% deionized water, volume/volume (v/v). […] To determine the level of modulation of BRD9 after each regimen, mice (n=4 mice/time-point) were euthanized and tumor samples were collected at different timepoints post-last dose (Day 21). […] BRD9 levels were assessed at 24, 72 and 168 hours (expected time points of trough plasma concentrations) for QD, BIW, and QW regimens respectively, as indicated in Table 8. Samples were analyzed using Western blot method.

BRD9 [2] = biological target: T1, BRD9; test: BRD9 degradation in synovial sarcoma tumor in vivo (western blot); parameters: from tissue; host or cells: SYO-1 xenograft tumours in BALB/c nude or NOD SCID mice; species or system mice; details: 1 mg/kg i.p. for 4 weeks; up to 168 hours after dose
Protocol: Method: Mice were treated with D1, 1 mg/kg, i.p. for 4 weeks. Mice were then euthanized, and tumors were collected at 8 hours, 72 hours, and 168 hours post last dose. Tumors were lysed with 1×RIPA lysis buffer (Boston BioProducts, BP-115D) with protease and phosphatase protein inhibitor (Roche Applied Science #04906837001 & 05892791001). Equal amounts of lysate (30 ug) were loaded in 4-12% Bis-Tris Midi Protein Gels in 1×MOPS buffer; samples ran at 120 V for 120 minutes. Protein was transferred to membrane with TransBlot at 250 mA for 150 minutes, and then membranes were blocked with Odyssey blocking buffer for 1 hour at room temperature. Membranes were hybridized overnight in cold room with primary antibodies. Images acquired using Li-COR imaging system (Li-COR Biotechnology, Lincoln, Nebraska).

Structure (SMILES): COc1cc(-c2cn(C)c(=O)c3cnc(N4CCC4)cc23)cc(OC)c1CN1CCC(CN2CCC3(CC2)CN(c2ccc4c(c2)C(=O)N(C2CCC(=O)NC2=O)C4)C3)CC1 (racemic) [Compound D1, 3-[6-(7-[[1-([4-[6-(azetidin-1-yl)-2-methyl-1-oxo-2,7-naphthyridin-4-yl]-2,6-dimethoxyphenyl]methyl)piperidin-4-yl]methyl]-2,7-diazaspiro[3.5]nonan-2-yl)-1-oxo-3H-isoindol-2-yl]piperidine-2,6-dione]
- BRD9 PD effect in tumor at Cmin (BRD9 [1]; 0.35 mg/kg BIW or 0.7 mg/kg QW treatment): intermediate PD effect
- BRD9 depletion in tumor at Cmin (BRD9 [1]; 3.5 mg/kg QW and 0.5 mg/kg QD treated groups): Nearly complete BRD9 depletion
- degradation of BRD9 in tumor (BRD9 [2]): complete degradation of BRD9 target; also recorded: BRD9 inhibition
